Test results taken from ChEMBL document CHEMBL1201862, “PubChem BioAssay data set” (2004).
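Dose response: 5 concentrations. Exposure: 48 h. Format: 96-well plates. Endpoint: linear interpolation; highest concentration if not reached. The concentration for 50% growth inhibition is given as GI50.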 Activity calls are given as the source filed them. Cut-off read from the data, not from the text of the source: active = GI50 up to about 1.1 µM and inactive = higher.

How the values were obtained:
Assay in all cases: inhibition of tumour cell growth, NCI panel, 48 h
HOP-92 = tested on: HOP-92
T47D = tested on: T47D
Hs-578T = tested on: Hs-578T
MDA-N = tested on: MDA-N
PC-3 = tested on: PC-3
786-0 = tested on: 786-0
SR = tested on: SR
MCF7 = tested on: MCF7
NCI/ADR-RES = tested on: NCI/ADR-RES
HCT-15 = tested on: HCT-15
HOP-62 = tested on: HOP-62
SW-620 = tested on: SW-620
RPMI-8226 = tested on: RPMI-8226
MOLT-4 = tested on: MOLT-4
MDA-MB-231 = tested on: MDA-MB-231
MDA-MB-435 = tested on: MDA-MB-435
TK-10 = tested on: TK-10
EKVX = tested on: EKVX
IGROV-1 = tested on: IGROV-1
OVCAR-4 = tested on: OVCAR-4
KM12 = tested on: KM12
K562 = tested on: K562
LOX IMVI = tested on: LOX IMVI
ACHN = tested on: ACHN
NCI-H23 = tested on: NCI-H23
HCC 2998 = tested on: HCC 2998
CCRF-CEM = tested on: CCRF-CEM
SF-539 = tested on: SF-539
SK-OV-3 = tested on: SK-OV-3
UO-31 = tested on: UO-31
SF-295 = tested on: SF-295
U-251 = tested on: U-251
SNB-19 = tested on: SNB-19
NCI-H226 = tested on: NCI-H226
DU-145 = tested on: DU-145
HCT-116 = tested on: HCT-116
UACC-62 = tested on: UACC-62
OVCAR-5 = tested on: OVCAR-5
CAKI-1 = tested on: CAKI-1
OVCAR-3 = tested on: OVCAR-3
SF-268 = tested on: SF-268
M14 = tested on: M14
UACC-257 = tested on: UACC-257
OVCAR-8 = tested on: OVCAR-8
SK-MEL-2 = tested on: SK-MEL-2
RXF 393 = tested on: RXF 393
COLO 205 = tested on: COLO 205
Malme-3M = tested on: Malme-3M
BT-549 = tested on: BT-549
SN12C = tested on: SN12C
SNB-75 = tested on: SNB-75
SK-MEL-28 = tested on: SK-MEL-28
A549 = tested on: A549
HT-29 = tested on: HT-29
NCI-H522 = tested on: NCI-H522
SK-MEL-5 = tested on: SK-MEL-5
NCI-H460 = tested on: NCI-H460

c1ccc(C2SCc3nc4cc5ccccc5cc4n32)cc1 (centres undefined)
GI50 (HOP-92): 57.3 µM (inactive) | GI50 (T47D): > 100 µM (inactive) | GI50 (Hs-578T): 60.3 µM (inactive) | GI50 (MDA-N): > 100 µM (inactive) | GI50 (PC-3): > 100 µM (inactive) | GI50 (786-0): 60.4 µM (inactive) | GI50 (SR): > 100 µM (inactive) | GI50 (MCF7): > 100 µM (inactive) | GI50 (NCI/ADR-RES): > 100 µM (inactive) | GI50 (HCT-15): > 100 µM | GI50 (HOP-62): > 100 µM (inactive) | GI50 (SW-620): > 100 µM (inactive) | GI50 (RPMI-8226): > 100 µM (inactive) | GI50 (MOLT-4): > 100 µM (inactive) | GI50 (MDA-MB-231): > 100 µM (inactive) | GI50 (MDA-MB-435): > 100 µM (inactive) | GI50 (TK-10): > 100 µM (inactive) | GI50 (EKVX): > 100 µM (inactive) | GI50 (IGROV-1): > 100 µM (inactive) | GI50 (OVCAR-4): 89.3 µM (inactive) | GI50 (KM12): > 100 µM (inactive) | GI50 (K562): > 100 µM (inactive) | GI50 (LOX IMVI): > 100 µM (inactive) | GI50 (ACHN): > 100 µM (inactive) | GI50 (NCI-H23): > 100 µM (inactive) | GI50 (HCC 2998): > 100 µM (inactive) | GI50 (CCRF-CEM): > 100 µM (inactive) | GI50 (SF-539): > 100 µM (inactive) | GI50 (SK-OV-3): > 100 µM (inactive) | GI50 (UO-31): > 100 µM (inactive) | GI50 (SF-295): 85.5 µM (inactive) | GI50 (U-251): > 100 µM (inactive) | GI50 (SNB-19): > 100 µM (inactive) | GI50 (NCI-H226): > 100 µM (inactive) | GI50 (DU-145): > 100 µM (inactive) | GI50 (HCT-116): > 100 µM (inactive) | GI50 (UACC-62): > 100 µM (inactive) | GI50 (OVCAR-5): > 100 µM (inactive) | GI50 (CAKI-1): > 100 µM (inactive) | GI50 (OVCAR-3): > 100 µM (inactive) | GI50 (SF-268): > 100 µM (inactive) | GI50 (M14): > 100 µM (inactive) | GI50 (UACC-257): > 100 µM (inactive) | GI50 (OVCAR-8): > 100 µM (inactive) | GI50 (SK-MEL-2): > 100 µM (inactive) | GI50 (RXF 393): > 100 µM (inactive) | GI50 (COLO 205): > 100 µM (inactive) | GI50 (Malme-3M): > 100 µM (inactive) | GI50 (BT-549): > 100 µM (inactive) | GI50 (SN12C): > 100 µM (inactive) | GI50 (SNB-75): 70.1 µM (inactive) | GI50 (SK-MEL-28): > 100 µM (inactive) | GI50 (A549): > 100 µM (inactive) | GI50 (HT-29): > 100 µM (inactive)

Cc1cccc(/C=N/NC(=S)Nc2ccc(Cl)cc2)n1
GI50 (HOP-92): 3 µM (inactive) | GI50 (T47D): 0.611 µM (active) | GI50 (Hs-578T): 2.18 µM (inactive) | GI50 (MDA-N): 0.308 µM (active) | GI50 (PC-3): 1.94 µM (inactive) | GI50 (786-0): 1.63 µM (inactive) | GI50 (SR): 0.778 µM (active) | GI50 (MCF7): 0.607 µM (active) | GI50 (NCI/ADR-RES): 0.527 µM (active) | GI50 (HCT-15): 0.519 µM | GI50 (HOP-62): 1.08 µM (active) | GI50 (SW-620): 0.46 µM (active) | GI50 (RPMI-8226): 1.14 µM (inactive) | GI50 (MOLT-4): 1.17 µM (inactive) | GI50 (MDA-MB-231): 0.897 µM (active) | GI50 (MDA-MB-435): 0.205 µM (active) | GI50 (TK-10): 11.6 µM (inactive) | GI50 (EKVX): 2.41 µM (inactive) | GI50 (IGROV-1): 0.811 µM (active) | GI50 (OVCAR-4): 4.78 µM (inactive) | GI50 (NCI-H522): 0.177 µM (active) | GI50 (KM12): 0.977 µM (active) | GI50 (SK-MEL-5): 0.993 µM (active) | GI50 (K562): 0.329 µM (active) | GI50 (LOX IMVI): 1.04 µM (active) | GI50 (ACHN): 1.12 µM (active) | GI50 (NCI-H460): 0.635 µM (active) | GI50 (NCI-H23): 4.38 µM (inactive) | GI50 (HCC 2998): 7.8 µM (inactive) | GI50 (CCRF-CEM): 0.695 µM (active) | GI50 (SF-539): 2.52 µM (inactive) | GI50 (SK-OV-3): 1.8 µM (inactive) | GI50 (UO-31): 1.87 µM (inactive) | GI50 (SF-295): 2.02 µM (inactive) | GI50 (U-251): 2.19 µM (inactive) | GI50 (SNB-19): 2.31 µM (inactive) | GI50 (DU-145): 3.31 µM (inactive) | GI50 (HCT-116): 1.47 µM (inactive) | GI50 (UACC-62): 0.643 µM (active) | GI50 (OVCAR-5): 15.7 µM (inactive) | GI50 (CAKI-1): 1.7 µM (inactive) | GI50 (OVCAR-3): 0.968 µM (active) | GI50 (SF-268): 2.61 µM (inactive) | GI50 (M14): 1.08 µM (active) | GI50 (UACC-257): 3.13 µM (inactive) | GI50 (OVCAR-8): 3.74 µM (inactive) | GI50 (SK-MEL-2): 1.35 µM (inactive) | GI50 (COLO 205): 0.658 µM (active) | GI50 (Malme-3M): 0.665 µM (active) | GI50 (BT-549): 7.14 µM (inactive) | GI50 (SN12C): 3.4 µM (inactive) | GI50 (SNB-75): 0.741 µM (active) | GI50 (SK-MEL-28): 3.39 µM (inactive) | GI50 (A549): 1.93 µM (inactive) | GI50 (HT-29): 1.03 µM (active)
